Where two headings read alike, the source gives them in different places.
Legend:
human CB1 receptor [1] = biological target: T1, human CB1 receptor (Homo sapiens, UniProt P21554); test: Human CB1 receptor binding, [3H] CP-55,940 displacement on HEK cell membranes; design: expressed in transfected cells; host or cells: HEK cells, doxycycline-induced; membrane preparation
Method in brief: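 Radioligand displacement: [3H] CP-55,940 at […] final, 1 μg membrane protein per well from HEK cells with tetracycline-inducible human CB1, 60 min at room temperature, pH 7.4 Tris/NaCl/MgCl2/EGTA/BSA buffer. 50 μM WIN-55,212-2 set nonspecific binding; bound label filtered, counted, and fitted for EC50 and Ki values.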

human CB1 receptor [2] = biological target: T1, human CB1 receptor; test: [35S] GTPγS binding on membranes of CHO cells expressing the human CB1 receptor (agonism); type: biochemical; design: expressed in transfected cells; membrane preparation
Description: Membrane preparation: CHO cells expressing the human CB1 receptor were grown to 80% confluence in Ham's F-12 Nutrient Medium (Invitrogen) containing 10% fetal bovine serum (Invitrogen), 1% pen/strep (Invitogen), 1% Nonessential amino acids (Invitrogen) and 500 μg/ml G418 (Invitrogen). Cells were released from flasks using Cell Dissociation Buffer (Invitrogen). Cells were pelleted by centrifugation at 500×G for 5 minutes. Membranes were prepared by resuspending cells in ice cold Assay Buffer (25 mM Tris pH 7.4, 5 mM EDTA, 5 mM EGTA, Complete Protease Inhibitor (Roche)). Cells were lysed with 12 strokes of a dounce homogenizer. Unlysed cells were pelleted by centrifugation at 500×G for 5 minutes. Membranes were pelleted by centrifugation at 25,000×G for 30 minutes. Membranes were resuspended in TEE, dounced 12 strokes, and pelleted a second time at 25,000×G for 30 minutes. Membrane pellet was resuspended in 50 mM Tris pH 7.4, 100 mM NaCl, 3 mM MgCl2, 0.2 mM EGTA, Complete Protease Inhibitor (Roche). Protein concentration was determined using the Micro-BCA Protein Assay Kit (Pierce) using BSA as a standard. Membranes were frozen and stored at −80 degrees Celsius until use.
GTPγS Binding: 40 μl of test compound was incubated with 20 μl of [^35S] GTPγS (Perkin Elmer) (1250 Ci/millimole) and 140 μl of membrane homogenate (5 μg/well) in polypropylene 96-well plates (Corning). Final reaction conditions were 50 mM Tris pH 7.4, 100 mM NaCl, 3 mM MgCl2, 0.2 mM EGTA, 0.04% BSA. After incubation at 37 degrees Celsius for 45 minutes reactions were harvested by vacuum filtration through Unifilter GF/B-96 filters (Perkin Elmer) using a FilterMate Plate Harvester (Perkin Elmer). Filters were rinsed 4 times with ice cold 50 mM Tris pH 7.4, 3 mM MgCl2, 0.2 mM EGTA and dried at 50 degrees Celsius for at least 30 minutes. 40 μl of Microscint-20 (Perkin Elmer) was added per well, and plates were counted using a Top-Count Microplate Scintillation Counter (Perkin Elmer). Binding data were analyzed and EC50 values were calculated using Graph Pad Prism 4.0 Software.

[3] = GTPγS EC50, human CB1, CHO cell membranes
[4] = human CB1, CHO cell membranes, read-out: GTPγS EC50

T1 sequence (P21554 whole entry): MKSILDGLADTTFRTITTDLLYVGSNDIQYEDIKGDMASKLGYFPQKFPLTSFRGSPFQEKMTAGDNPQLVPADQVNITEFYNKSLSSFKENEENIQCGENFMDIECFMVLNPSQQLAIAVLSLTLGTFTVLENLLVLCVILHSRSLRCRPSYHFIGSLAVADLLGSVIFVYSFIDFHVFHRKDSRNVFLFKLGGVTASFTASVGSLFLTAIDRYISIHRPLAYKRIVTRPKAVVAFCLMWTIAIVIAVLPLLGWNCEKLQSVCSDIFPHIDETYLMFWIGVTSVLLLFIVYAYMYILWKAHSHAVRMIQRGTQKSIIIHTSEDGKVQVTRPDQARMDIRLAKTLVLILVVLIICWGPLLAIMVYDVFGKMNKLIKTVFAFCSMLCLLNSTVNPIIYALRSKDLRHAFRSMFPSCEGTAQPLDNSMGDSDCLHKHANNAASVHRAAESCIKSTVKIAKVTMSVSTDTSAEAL

Row | Structure (SMILES) | Ki (human CB1 receptor [1]; CB1 Ki) | EC50 (human CB1 receptor [2]; [3]) | Ki (human CB1 receptor [1]; read-out: CB1 Ki) | EC50 (human CB1 receptor [2]; [4])
1 | CC(C)(C)C(NC(=O)c1nn(Cc2ccc(F)cc2)c2ccccc12)C(=O)NCCNC(N)=O (stereo not shown) [Example 85] | 1.72 nM | 16.1 nM | – | –
2 | CC(C)(C)C(NC(=O)c1nn(Cc2ccc(C#N)cc2F)c2ccccc12)C(N)=O (stereo not shown) [Example 86] | 2.75 nM | 34.2 nM | – | –
3 | CC(C)(C)C(NC(=O)c1nn(Cc2ccc(C#N)cc2F)c2ccccc12)C(=O)NC1CC1 (stereo not shown) [Example 87] | 2.26 nM | 46.1 nM | – | –
4 | CC(C)(C)C(NC(=O)c1nn(Cc2ccc(C#N)cc2F)c2ccccc12)c1nnc(NC(=O)C2CC2)o1 (stereo not shown) [Example 88] | – | – | 15.4 nM | 132 nM
5 | CC(C)(C)C(NC(=O)c1nn(Cc2ccc(C#N)cc2F)c2ccccc12)C(=O)NCC(O)CO (stereo not shown) [Example 89] | 63.4 nM | 539 nM | – | –
6 | CC(C)(C)C(NC(=O)c1nn(Cc2ccc(C#N)cc2F)c2ccccc12)C(=O)NCC(O)CO (stereo not shown) [Example 90] | 27.4 nM | 385 nM | – | –
7 | CC(C)(C)C(NC(=O)c1nn(Cc2ccc(C#N)cc2F)c2ccccc12)C(=O)NCCO (stereo not shown) [Example 91] | 1.87 nM | 53.8 nM | – | –
8 | CC(C)(C)C(NC(=O)c1nn(Cc2ccc(C#N)cc2F)c2ccccc12)C(=O)NCC(N)=O (stereo not shown) [Example 92] | 14.1 nM | 265 nM | – | –
9 | CC(C)(C)C(NC(=O)c1nn(Cc2ccc(C#N)cc2F)c2ccccc12)C(=O)NCCCO (stereo not shown) [Example 93] | 14.3 nM | 41.8 nM | – | –
10 | CC(C)(C)C(NC(=O)c1nn(Cc2ccc(C#N)cc2F)c2ccccc12)C(=O)NCCNC(N)=O (stereo not shown) [Example 94] | 27.5 nM | 77 nM | – | –
11 | CC(C)(C)C(NC(=O)c1nn(Cc2ccc(C#N)cc2F)c2ccccc12)c1nnc(N)o1 (stereo not shown) [Example 95] | – | – | 2.22 nM | 13.7 nM
12 | CC(C)(C)C(NC(=O)c1nn(Cc2ccccc2)c2ccccc12)C(=O)NCCNS(=O)(=O)C1CC1 (stereo not shown) [Example 96] | – | – | 1.18 nM | 16.9 nM
13 | CC(C)(C)[C@H](NC(=O)c1nn(Cc2ccc(C#N)cc2)c2ccccc12)C(=O)NCCNS(=O)(=O)C1CC1 [Example 97] | – | – | 1.04 nM | 16.7 nM
14 | CC(C)(C)[C@H](NC(=O)c1nn(Cc2ccc(C#N)cc2F)c2ccccc12)C(=O)NCCNS(=O)(=O)C1CC1 [Example 98] | – | – | 0.98 nM | 8.63 nM
15 | CC(C)(C)[C@H](NC(=O)c1nn(Cc2ccc(F)cc2)c2ccccc12)C(=O)NCCNS(=O)(=O)C1CC1 [Example 99] | – | – | 0.18 nM | 0.5 nM
16 | CC(C)(C)[C@H](NC(=O)c1nn(Cc2ccc(F)cc2)c2ccccc12)C(=O)NCCNC(=O)C1CC1 [Example 103] | – | – | 2.68 nM | 9.08 nM
17 | CC(C)(C)[C@H](NC(=O)c1nn(Cc2ccc(C#N)cc2)c2c(F)cccc12)C(=O)NC1CC1 [Example 108] | 3.78 nM | 27 nM | – | –
18 | CC(C)(C)[C@H](NC(=O)c1nn(Cc2ccc(C#N)cc2)c2c(F)cccc12)C(=O)NCCCO [Example 109] | 8.14 nM | 110 nM | – | –
19 | CC(C)(C)[C@H](NC(=O)c1nn(Cc2ccc(C#N)cc2)c2c(F)cccc12)C(=O)NCC(N)=O [Example 110] | 28.9 nM | 237 nM | – | –
20 | CC(C)(C)[C@H](NC(=O)c1nn(Cc2ccc(C#N)cc2)c2c(F)cccc12)C(N)=O [Example 111] | 0.72 nM | 9.73 nM | – | –
21 | CC(C)(C)[C@H](NC(=O)c1nn(Cc2ccc(C#N)cc2)c2c(F)cccc12)c1nnc(N)o1 [Example 112] | – | – | 0.51 nM | 31.8 nM
22 | CC(C)(C)[C@H](NC(=O)c1nn(Cc2ccc(C#N)cc2)c2c(F)cccc12)C(=O)NC[C@H](O)CO [Example 113] | 7.79 nM | 188 nM | – | –

Row | Structure (SMILES) | Ki (human CB1 receptor [1]; CB1 Ki) | EC50 (human CB1 receptor [2]; [3]) | Ki (human CB1 receptor [1]; read-out: CB1 Ki) | EC50 (human CB1 receptor [2]; [4])
23 | CC(C)(C)[C@H](NC(=O)c1nn(Cc2ccc(C#N)cc2)c2c(F)cccc12)C(=O)NCCNS(=O)(=O)C1CC1 [Example 115] | – | – | 1.09 nM | 8.72 nM
24 | CC(C)(C)[C@H](NC(=O)c1nn(Cc2ccc(C#N)cc2)c2c(F)cccc12)C(=O)NCc1nnc(C(N)=O)o1 [Example 116] | – | – | 13.5 nM | 49.6 nM
25 | CC(C)(C)[C@H](NC(=O)c1nn(Cc2ccc(C#N)cc2)c2c(F)cccc12)C(=O)NC(CO)CO [Example 117] | 9.54 nM | 168 nM | – | –
26 | CC(C)(C)C(NC(=O)c1nn(Cc2ccc(F)cc2)c2ccccc12)c1nnc(NC(N)=O)o1 (stereo not shown) [Example 118] | – | – | 0.7 nM | 23.8 nM
27 | CC(C)(C)C(NC(=O)c1nn(Cc2ccc(F)cc2)c2ccccc12)c1nnc(CC(N)=O)o1 (stereo not shown) [Example 120] | – | – | 3.05 nM | 40 nM
28 | CC(C)(C)C(NC(=O)c1nn(Cc2ccc(F)cc2)c2ccccc12)c1nnc(C(N)=O)o1 (stereo not shown) [Example 122] | – | – | 0.73 nM | 13.1 nM
29 | Cc1nnc(CNC(=O)[C@@H](NC(=O)c2nn(Cc3ccc(F)cc3)c3ccccc23)C(C)(C)C)o1 [Example 126] | 0.97 nM | 2.55 nM | – | –
30 | Cc1nnc(CNC(=O)[C@@H](NC(=O)c2nn(Cc3ccc(C#N)cc3)c3ccccc23)C(C)(C)C)o1 [Example 127] | 32.8 nM | 136 nM | – | –
31 | CCOC(=O)c1nnc(CNC(=O)[C@@H](NC(=O)c2nn(Cc3ccc(F)cc3)c3ccccc23)C(C)(C)C)o1 [Example 128] | – | – | 0.97 nM | 3.58 nM
32 | CCOC(=O)c1nnc(CNC(=O)[C@@H](NC(=O)c2nn(Cc3ccc(C#N)cc3)c3ccccc23)C(C)(C)C)o1 [Example 129] | – | – | 12.6 nM | 106 nM
33 | CC(C)(C)C(NC(=O)c1nn(Cc2ccc(C#N)cc2)c2ccccc12)C(=O)NCc1nnc(C(N)=O)o1 (stereo not shown) [Example 130] | – | – | 14.7 nM | 72.7 nM
34 | Cc1nc(CNC(=O)C(NC(=O)c2nn(Cc3ccc(F)cc3)c3ccccc23)C(C)(C)C)no1 (stereo not shown) [Example 131] | 0.6 nM | 13.2 nM | – | –
35 | CC(C)(C)C(NC(=O)c1nn(Cc2ccc(F)cc2)c2ccccc12)C(=O)N1CCC(O)CC1 (stereo not shown) [Example 133] | 0.55 nM | 6.35 nM | – | –
36 | CC(C)(C)C(NC(=O)c1nn(Cc2ccc(C#N)cc2)c2ccccc12)C(=O)N1CCC(O)CC1 (stereo not shown) [Example 134] | 32.7 nM | 326 nM | – | –
37 | CCOC(=O)c1nc(CNC(=O)C(NC(=O)c2nn(Cc3ccc(F)cc3)c3ccccc23)C(C)(C)C)no1 (stereo not shown) [Example 135] | – | – | 3.47 nM | 14.3 nM
38 | CCOC(=O)c1nc(CNC(=O)C(NC(=O)c2nn(Cc3ccc(C#N)cc3)c3ccccc23)C(C)(C)C)no1 (stereo not shown) [Example 136] | – | – | 10.7 nM | 115 nM
39 | CC(C)(C)C(NC(=O)c1nn(Cc2ccc(F)cc2)c2ccccc12)C(=O)NCc1noc(C(N)=O)n1 (stereo not shown) [Example 137] | – | – | 0.69 nM | 1.69 nM
40 | Cc1noc(CNC(=O)C(NC(=O)c2nn(Cc3ccc(F)cc3)c3ccccc23)C(C)(C)C)n1 (stereo not shown) [Example 139] | 0.82 nM | 6.36 nM | – | –
41 | Cc1noc(CNC(=O)C(NC(=O)c2nn(Cc3ccc(C#N)cc3)c3ccccc23)C(C)(C)C)n1 (stereo not shown) [Example 140] | 39.3 nM | 645 nM | – | –
42 | CC(C)(C)C(NC(=O)c1nn(Cc2ccc(F)cc2)c2ccccc12)C(=O)NCCN1CCOCC1 (stereo not shown) [Example 141] | – | – | 9.42 nM | 41.1 nM
43 | CC(C)(C)C(NC(=O)c1nn(Cc2ccc(F)cc2)c2ccccc12)C(=O)NCCc1nnc(C2CC2)o1 (stereo not shown) [Example 148] | – | – | 1.8 nM | 32.2 nM
44 | CC(C)(C)C(NC(=O)c1nn(Cc2ccc(F)cc2)c2ccccc12)C(=O)N1CCC(O)C1 (stereo not shown) [Example 151] | 1.63 nM | 6.3 nM | – | –
